Calls of active or inactive are those of the source. The calls are words filed in the database; no cut-off is given here.
Experiments:
Mus musculus [1] = assay: Increase in motor activity Sabra mouse at 1 mg/kg, ip administered on day 8, 9, 10, 11, 14, 18, 24 and 32 measured on day 14 by open field test; assay type: functional, organism-based; set-up: dose 1 mg/kg
Mus musculus [2] = assay: Antiobesity activity in Sabra mouse assessed as change in food consumption at 1 mg/kg, ip administered on day 8, 9, 10, 11, 14, 18, 24 and 32 measured after 5 weeks relative to control; assay type: functional; settings: route intraperitoneal
Mus musculus [3] = assay: Antiobesity activity in Sabra mouse assessed as change in body weight at 1 mg/kg, ip administered on day 8, 9, 10, 11, 14, 18, 24 and 32 measured on day 9 relative to control; assay type: functional; settings: route intraperitoneal
Mus musculus [4] = assay: Antiobesity activity in Sabra mouse assessed as change in body weight at 1 mg/kg, ip administered on day 8, 9, 10, 11, 14, 18, 24 and 32 measured on day 25 relative to control; assay type: functional; settings: route intraperitoneal
Hypothalamus [5] = assay: Effect on NPY gene expression in Sabra mouse hypothalamus assessed as change in mRNA level at 1 mg/kg, ip administered on day 8, 9, 10, 11, 14, 18, 24 and 32 by RT-PCR analysis relative to GAPDH; assay type: functional; settings: route intraperitoneal
Hypothalamus [6] = assay: Effect on FAAH gene expression in Sabra mouse hypothalamus assessed as change in mRNA level at 1 mg/kg, ip administered on day 8, 9, 10, 11, 14, 18, 24 and 32 by RT-PCR analysis relative to GAPDH; assay type: functional; settings: route intraperitoneal
Mus musculus [7] = assay: Antiobesity activity in Sabra mouse assessed as change in body weight at 1 mg/kg, ip administered on day 8, 9, 10, 11, 14, 18, 24 and 32 measured on day 30 relative to control; assay type: functional; settings: route intraperitoneal
Hypothalamus [8] = assay: Effect on 5HT1A gene expression in Sabra mouse hypothalamus assessed as change in mRNA level at 1 mg/kg, ip administered on day 8, 9, 10, 11, 14, 18, 24 and 32 by RT-PCR analysis relative to GAPDH; assay type: functional; settings: route intraperitoneal
[9] = molecular target: Cannabinoid receptor 1 (Homo sapiens) (UniProt P21554); assay: Displacement of [3H]SR141716A from human CB1 receptor expressed in rat Chem-1 cell membrane at 10 uM relative to control; assay type: cell membranes
Mus musculus [10] = assay: Antiobesity activity in Sabra mouse assessed as change in body weight at 1 mg/kg, ip administered on day 8, 9, 10, 11, 14, 18, 24 and 32 measured on day 14 relative to control; assay type: functional; settings: route intraperitoneal
Mus musculus [11] = assay: Antiobesity activity in Sabra mouse assessed as change in food consumption at 1 mg/kg, ip administered on day 8, 9, 10, 11, 14, 18, 24 and 32 measured after 2 weeks relative to control; assay type: functional; settings: route intraperitoneal
Mus musculus [12] = assay: Antiobesity activity in Sabra mouse assessed as change in body weight at 1 mg/kg, ip administered on day 8, 9, 10, 11, 14, 18, 24 and 32 measured on day 4 relative to control; assay type: functional; settings: route intraperitoneal
Mus musculus [13] = assay: Antiobesity activity in Sabra mouse assessed as change in body weight at 1 mg/kg, ip administered on day 8, 9, 10, 11, 14, 18, 24 and 32 measured on day 21 relative to control; assay type: functional; settings: route intraperitoneal
Mus musculus [14] = assay: Antiobesity activity in Sabra mouse assessed as change in body weight at 1 mg/kg, ip administered on day 8, 9, 10, 11, 14, 18, 24 and 32 measured on day 39 relative to control; assay type: functional; settings: route intraperitoneal
Mus musculus [15] = assay: Antiobesity activity in Sabra mouse assessed as change in food consumption at 1 mg/kg, ip administered on day 8, 9, 10, 11, 14, 18, 24 and 32 measured after 4 weeks relative to control; assay type: functional; settings: route intraperitoneal
Hypothalamus [16] = assay: Effect on CART gene expression in Sabra mouse hypothalamus assessed as change in mRNA level at 1 mg/kg, ip administered on day 8, 9, 10, 11, 14, 18, 24 and 32 by RT-PCR analysis relative to GAPDH; assay type: functional; settings: route intraperitoneal
Mus musculus [17] = assay: Antiobesity activity in Sabra mouse assessed as change in food consumption at 1 mg/kg, ip administered on day 8, 9, 10, 11, 14, 18, 24 and 32 measured after 3 weeks relative to control; assay type: functional; settings: route intraperitoneal
[18] = molecular target: T1, Peroxisome proliferator-activated receptor alpha (Homo sapiens) (UniProt Q07869); assay: Binding affinity to human recombinant PPARalpha expressed in Escherichia coli at 10 uM for 16 hrs by spectrofluorimetric analysis relative to control
T1 sequence (whole entry): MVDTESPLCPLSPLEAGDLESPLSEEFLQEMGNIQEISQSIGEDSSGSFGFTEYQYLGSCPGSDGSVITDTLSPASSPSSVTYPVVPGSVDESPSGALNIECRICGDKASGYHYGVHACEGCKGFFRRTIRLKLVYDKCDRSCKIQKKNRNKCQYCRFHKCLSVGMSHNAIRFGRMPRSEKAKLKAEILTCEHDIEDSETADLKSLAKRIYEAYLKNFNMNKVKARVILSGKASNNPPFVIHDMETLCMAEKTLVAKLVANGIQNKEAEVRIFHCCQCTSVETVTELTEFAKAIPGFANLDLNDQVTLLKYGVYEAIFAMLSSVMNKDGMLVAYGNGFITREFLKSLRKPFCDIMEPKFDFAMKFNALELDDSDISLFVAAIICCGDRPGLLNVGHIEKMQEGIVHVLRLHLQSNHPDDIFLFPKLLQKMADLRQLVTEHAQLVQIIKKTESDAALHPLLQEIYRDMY

Mus musculus [19] = assay: Antiobesity activity in Sabra mouse assessed as change in body weight at 1 mg/kg, ip administered on day 8, 9, 10, 11, 14, 18, 24 and 32 measured on day 35 relative to control; assay type: functional; settings: route intraperitoneal
[20] = molecular target: Transient receptor potential cation channel subfamily V member 1 (Rattus norvegicus) (UniProt O35433); assay: Displacement of [3H]resiniferatoxin from TRPV1 receptor in Wistar rat spinal cord at 10 uM relative to control
Mus musculus [21] = assay: Antiobesity activity in Sabra mouse assessed as change in food consumption at 1 mg/kg, ip administered on day 8, 9, 10, 11, 14, 18, 24 and 32 measured after 6 weeks relative to control; assay type: functional; settings: route intraperitoneal
Hypothalamus [22] = assay: Effect on POMC gene expression in Sabra mouse hypothalamus assessed as change in mRNA level at 1 mg/kg, ip administered on day 8, 9, 10, 11, 14, 18, 24 and 32 by RT-PCR analysis relative to GAPDH; assay type: functional; settings: route intraperitoneal
[23] = molecular target: T2, Fatty-acid amide hydrolase 1 (Rattus norvegicus) (UniProt P97612); assay: Inhibition of rat brain FAAH using [3H]anandamide as substrate at 10 uM preincubated for 15 mins before substrate addition relative to control
T2 sequence (whole entry): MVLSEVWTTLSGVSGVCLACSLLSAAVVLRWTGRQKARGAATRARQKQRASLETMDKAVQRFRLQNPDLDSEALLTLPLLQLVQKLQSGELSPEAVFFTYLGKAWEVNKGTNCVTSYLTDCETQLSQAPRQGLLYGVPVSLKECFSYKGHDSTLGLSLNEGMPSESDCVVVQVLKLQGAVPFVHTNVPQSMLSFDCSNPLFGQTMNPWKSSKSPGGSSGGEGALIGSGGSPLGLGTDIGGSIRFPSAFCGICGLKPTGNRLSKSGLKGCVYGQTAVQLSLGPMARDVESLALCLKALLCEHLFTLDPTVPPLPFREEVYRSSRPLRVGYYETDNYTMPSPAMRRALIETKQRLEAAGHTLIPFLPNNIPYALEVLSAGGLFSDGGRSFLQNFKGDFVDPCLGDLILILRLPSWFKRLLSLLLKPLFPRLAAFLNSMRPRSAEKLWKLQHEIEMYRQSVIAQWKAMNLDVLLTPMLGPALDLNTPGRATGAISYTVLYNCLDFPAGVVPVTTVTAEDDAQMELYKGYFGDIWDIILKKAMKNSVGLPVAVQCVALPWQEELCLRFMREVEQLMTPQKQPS

Hypothalamus [24] = assay: Effect on CAMKK2 gene expression in Sabra mouse hypothalamus assessed as change in mRNA level at 1 mg/kg, ip administered on day 8, 9, 10, 11, 14, 18, 24 and 32 by RT-PCR analysis relative to GAPDH; assay type: functional; settings: route intraperitoneal
[25] = molecular target: Cannabinoid receptor 2 (Homo sapiens) (UniProt P34972); assay: Displacement of [3H]WIN-55,212-2 from human recombinant CB2 receptor expressed in CHO-K1 cells at 10 uM relative to control; assay type: cell-based
Sequence of Cannabinoid receptor 2 (Homo sapiens) (P34972 whole entry): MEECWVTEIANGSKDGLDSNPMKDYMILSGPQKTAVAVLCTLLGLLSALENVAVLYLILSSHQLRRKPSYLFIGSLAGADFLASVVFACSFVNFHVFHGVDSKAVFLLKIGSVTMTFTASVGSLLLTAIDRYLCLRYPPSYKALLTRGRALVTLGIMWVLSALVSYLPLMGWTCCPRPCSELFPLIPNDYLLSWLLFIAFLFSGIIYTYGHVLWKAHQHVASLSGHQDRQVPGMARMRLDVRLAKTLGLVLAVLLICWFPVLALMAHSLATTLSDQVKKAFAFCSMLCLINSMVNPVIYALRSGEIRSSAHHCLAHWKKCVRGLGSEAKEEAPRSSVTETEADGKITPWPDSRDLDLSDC

Sequence of Cannabinoid receptor 1 (Homo sapiens) (P21554 whole entry): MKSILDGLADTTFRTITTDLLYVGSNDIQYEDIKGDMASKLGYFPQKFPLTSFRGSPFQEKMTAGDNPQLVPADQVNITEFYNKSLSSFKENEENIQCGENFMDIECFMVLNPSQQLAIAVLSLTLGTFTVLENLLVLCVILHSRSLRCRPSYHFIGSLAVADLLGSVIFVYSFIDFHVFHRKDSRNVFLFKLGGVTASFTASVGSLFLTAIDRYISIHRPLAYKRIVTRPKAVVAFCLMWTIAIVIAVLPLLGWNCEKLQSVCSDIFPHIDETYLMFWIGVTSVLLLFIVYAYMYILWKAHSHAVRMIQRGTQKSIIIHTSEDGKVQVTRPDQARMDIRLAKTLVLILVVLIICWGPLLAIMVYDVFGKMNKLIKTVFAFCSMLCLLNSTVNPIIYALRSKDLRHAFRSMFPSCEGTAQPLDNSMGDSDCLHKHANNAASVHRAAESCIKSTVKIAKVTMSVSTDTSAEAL
Sequence of Transient receptor potential cation channel subfamily V member 1 (Rattus norvegicus) (O35433 whole entry): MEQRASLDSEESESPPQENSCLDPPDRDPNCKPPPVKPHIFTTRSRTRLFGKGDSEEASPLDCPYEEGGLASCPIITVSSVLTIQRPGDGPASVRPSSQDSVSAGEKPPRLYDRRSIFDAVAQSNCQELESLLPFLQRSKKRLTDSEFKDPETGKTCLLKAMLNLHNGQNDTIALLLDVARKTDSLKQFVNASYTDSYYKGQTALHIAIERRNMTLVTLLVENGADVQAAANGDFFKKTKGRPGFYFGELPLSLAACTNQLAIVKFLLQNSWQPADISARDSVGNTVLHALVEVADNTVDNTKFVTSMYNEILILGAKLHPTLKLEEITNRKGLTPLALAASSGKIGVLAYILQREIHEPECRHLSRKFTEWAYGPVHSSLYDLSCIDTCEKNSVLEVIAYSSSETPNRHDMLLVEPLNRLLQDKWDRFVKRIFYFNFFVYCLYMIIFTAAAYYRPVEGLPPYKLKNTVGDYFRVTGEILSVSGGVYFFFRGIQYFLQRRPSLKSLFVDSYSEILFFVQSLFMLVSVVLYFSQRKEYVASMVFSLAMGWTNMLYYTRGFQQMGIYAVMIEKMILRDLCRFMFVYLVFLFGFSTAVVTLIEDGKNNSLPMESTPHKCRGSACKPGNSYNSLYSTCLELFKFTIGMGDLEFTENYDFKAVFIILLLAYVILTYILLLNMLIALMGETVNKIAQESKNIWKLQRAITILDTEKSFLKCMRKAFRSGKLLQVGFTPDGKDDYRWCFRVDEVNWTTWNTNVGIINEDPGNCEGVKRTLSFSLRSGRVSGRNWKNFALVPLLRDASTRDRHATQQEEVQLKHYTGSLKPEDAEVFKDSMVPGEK

CCCCCCCCCCCCCCCCCC(=O)N[C@H](CO)C(C)C
Activity (Mus musculus [1]): inactive | Activity (Mus musculus [2]): 100.5% | Activity (Mus musculus [3]): 0.9% | Activity (Mus musculus [4]): -5.3% | Activity (Hypothalamus [5]): -39% | Activity (Hypothalamus [6]): -26% | Activity (Mus musculus [7]): -5.8% | Activity (Hypothalamus [8]): -16% | inhibition [9]: 6% | Activity (Mus musculus [10]): -1.4% | Activity (Mus musculus [11]): 96% | Activity (Mus musculus [12]): 2.1% | Activity (Mus musculus [13]): -1.8% | Activity (Mus musculus [14]): -6% | Activity (Mus musculus [15]): 85.7% | Activity (Hypothalamus [16]): 2% | Activity (Mus musculus [17]): 93.8% | Activity [18]: 0% | Activity (Mus musculus [19]): -7.8% | inhibition [20]: -9% | Activity (Mus musculus [21]): 82.5% | Activity (Hypothalamus [22]): 43% | inhibition [23]: 0% | Activity (Hypothalamus [24]): -14% | inhibition [25]: 6%

CCCCCCCC/C=C\CCCCCCCC(=O)N[C@@H](CO)C(C)C
Activity (Mus musculus [1]): Active | Activity (Mus musculus [2]): 80.6% | Activity (Mus musculus [3]): -0.8% | Activity (Mus musculus [4]): -3.3% | Activity (Hypothalamus [5]): 8% | Activity (Hypothalamus [6]): -28% | Activity (Mus musculus [7]): -4.7% | Activity (Hypothalamus [8]): 17% | inhibition [9]: 36% | Activity (Mus musculus [10]): -3.1% | Activity (Mus musculus [11]): 79.4% | Activity (Mus musculus [12]): 0.4% | Activity (Mus musculus [13]): -1.7% | Activity (Mus musculus [14]): -6.7% | Activity (Mus musculus [15]): 81.8% | Activity (Hypothalamus [16]): 44% | Activity (Mus musculus [17]): 78.1% | Activity [18]: 0% | Activity (Mus musculus [19]): -6% | inhibition [20]: 3% | Activity (Mus musculus [21]): 77.3% | Activity (Hypothalamus [22]): 31% | inhibition [23]: 8% | Activity (Hypothalamus [24]): -2% | inhibition [25]: 5%

CCCCCCCCCCCCCCCC(=O)N[C@H](CO)C(C)C
Activity (Mus musculus [1]): inactive | Activity (Mus musculus [2]): 97.4% | Activity (Mus musculus [3]): -2.1% | Activity (Mus musculus [4]): -4.9% | Activity (Hypothalamus [5]): -52% | Activity (Hypothalamus [6]): 15% | Activity (Mus musculus [7]): -7.1% | Activity (Hypothalamus [8]): -1% | inhibition [9]: 21% | Activity (Mus musculus [10]): -2.2% | Activity (Mus musculus [11]): 97% | Activity (Mus musculus [12]): 1.9% | Activity (Mus musculus [13]): 3% | Activity (Mus musculus [14]): -6.7% | Activity (Mus musculus [15]): 85.9% | Activity (Hypothalamus [16]): -13% | Activity (Mus musculus [17]): 96.8% | Activity [18]: 2% | Activity (Mus musculus [19]): -8.5% | Activity (Mus musculus [21]): 81.4% | Activity (Hypothalamus [22]): 2% | Activity (Hypothalamus [24]): 15% | inhibition [25]: 0%

CCCCCCCC/C=C/CCCCCCCC(=O)N[C@@H](CO)C(C)C
Activity (Mus musculus [1]): inactive | Activity (Mus musculus [2]): 111.4% | Activity (Mus musculus [3]): -1.7% | Activity (Mus musculus [4]): -1.1% | Activity (Hypothalamus [5]): -9% | Activity (Hypothalamus [6]): -46% | Activity (Mus musculus [7]): 0.2% | Activity (Hypothalamus [8]): -18% | inhibition [9]: 7% | Activity (Mus musculus [10]): -0.3% | Activity (Mus musculus [11]): 102.9% | Activity (Mus musculus [12]): -2.3% | Activity (Mus musculus [13]): -1% | Activity (Mus musculus [14]): -1% | Activity (Mus musculus [15]): 108% | Activity (Hypothalamus [16]): 25% | Activity (Mus musculus [17]): 112% | Activity [18]: 0% | Activity (Mus musculus [19]): 1.4% | Activity (Mus musculus [21]): 109.1% | Activity (Hypothalamus [22]): 5% | inhibition [23]: 13% | Activity (Hypothalamus [24]): 8% | inhibition [25]: 0%

CCCCCCCC/C=C/CCCCCCCC(=O)N[C@H](CO)C(C)C
Activity (Mus musculus [2]): 109.2% | Activity (Mus musculus [3]): -0.1% | Activity (Mus musculus [4]): 0.7% | Activity (Hypothalamus [5]): 69% | Activity (Hypothalamus [6]): 15% | Activity (Mus musculus [7]): 0.2% | Activity (Hypothalamus [8]): -9% | inhibition [9]: 8% | Activity (Mus musculus [10]): 1% | Activity (Mus musculus [11]): 98.5% | Activity (Mus musculus [12]): 3.1% | Activity (Mus musculus [13]): -0.1% | Activity (Mus musculus [14]): 0% | Activity (Mus musculus [15]): 104.9% | Activity (Hypothalamus [16]): -11% | Activity (Mus musculus [17]): 108.1% | Activity [18]: 0% | Activity (Mus musculus [19]): 1.6% | inhibition [20]: 6% | Activity (Mus musculus [21]): 104.5% | Activity (Hypothalamus [22]): 10% | inhibition [23]: 7% | Activity (Hypothalamus [24]): 62% | inhibition [25]: 5%
